# Experiments:
# Ehrlich solid carcinoma = system: Ehrlich solid carcinoma; parameters: method as in doi:10.1007/s10967-015-4053-1; conditions: cited from earlier work
# genomic DNA = assay: Pt-DNA adducts quantification using High Resolution ICP-MS; format: in vivo, C57Bl/6N mice; conditions: 24 h after i.v. injection
# Source text: The remaining half of the tissues from all mice were dissected and weighed for DNA extraction. DNA was isolated using DNeasy Blood & Tissue Kit (Qiagen, USA) for soft tissue and ChargeSwitch® gDNA Plant Kit (Thermofisher, USA) for bone samples. The DNA was digested with DNase I Solution (Thermofisher, USA) and filtered using 0.2 µm acrodisc GHP before analysis for Pt content using high resolution-ICP-MS (Element2, Thermo Finnigan). The detection limit for determining the platinum concentration was 2 ng/l. The standard solutions were prepared from 1000 mg·1^−1 platinum ICP standard Certipur (1.70341.0100, Merck) ranging from 5 ppt to 10 ppb. The selected isotopes for platinum were ^194Pt and ^195Pt. Furthermore, thallium (Tl) was added as an internal standard and determined at a molecular mass of 205 Da, which was prepared using a 1000 mg·1^−1 thallium standard (CGTL-1, Inorganic Ventures) to correct for matrix effects and long-term fluctuations of the analytical signal. The Pt-DNA adduct concentration is represented as percentage of Pt involved in adduct formation to the total amount of Pt accumulated in the specific tissue.
# [1] = In vivo biodistribution of cold Pt-species, Pt quantified by ICP-MS; parameters: species or system C57Bl/6N mice; conditions: 24 h after i.v. injection, 2.5 mM Pt
# Experimental: The Pt-BP and Pt(NO3)2(en) complexes were administered intravenously in the tail vein of C57BL/6N mice (n = 5 per each platinum complex). Sterile saline solution (0.9% NaCl) was used to dissolve platinum complexes. The concentration of injected Pt-BP or Pt(NO3)2(en) solutions was 2.5 mM platinum, calculated based on the maximum tolerated dose for cisplatin of 6 mg per kg body weight of the mice[37]. The mice were euthanized with CO2 24 h after injection, after which blood (approximately 600 mg per mouse), liver, spleen, kidneys, heart, lungs, and bones (femur, humerus, tibia, and spine) were harvested. Approximately half of the tissues were prepared for inductively coupled plasma-mass spectrometry (ICP-MS) analysis by digestion in 65% (v/v) nitric acid at 75 °C for approximately three days until the tissues were digested completely. Each tissue was cut into three samples and the samples were weighed prior to digestion in nitric acid. The digested solutions were diluted with up to 6 ml of Milli-Q water to obtain 2% (v/v) nitric acid in order to measure platinum concentrations by ICP-MS (X series I, Thermo Electron Corporation). The detection limit for determining platinum concentration with ICP-MS was 1 ppb. The standard solutions were prepared from 1000 mg·1^−1 platinum ICP standard Certipur (1.70341.0100, Merck) ranging from 1 ppb to 2500 ppb. The measured isotopes for platinum were ^194Pt, ^195Pt, ^196Pt, and ^198Pt. Furthermore, scandium (^45Sc) was added as an internal standard, which was prepared with 1000 mg·1^−1 scandium standard Certipur (1.19513.0100, Merck) to correct for matrix effects and long-term fluctuations of the measurement signal. The platinum concentrations in the various tissues were calculated relative to 1 mg of the specific tissue and represented as ng Pt/mgtissue. Three replicates of Pt-BP and Pt(NO3)2(en) solutions with volumes and platinum concentrations identical to the solutions injected to the mice (200 µl and 2.5 mM platinum, respectively) were also analyzed for their platinum content using ICP-MS as control. The percentage of injected dose (%ID) of Pt-BP and Pt(NO3)2(en) in each mouse tissue 24 h after injection was calculated by dividing the total amount of platinum per tissue through the total amount of platinum detected in the control solutions[52].
# [2] = Laser ablation ICP-MS imaging of Pt co-localization with calcium in mice tibia; format: in vivo; conditions: proximal tibia sections; for percentage of Pt co-localized with calcium: LA-ICP-MS
# Experimental: The experimental procedure was carried out as reported previously. The mice tibias were incubated in neutral buffered formaldehyde for 36 h. Later, tibias were dehydrated in ascending grades of 70% to 100% ethanol and embedded in poly(methyl methacrylate) (pMMA) resin, freshly prepared by mixing 600 mL of methyl methacrylate monomer (Acros Organics BVBA, Geel, Belgium), 60 ml dibutyl phthalate (Merck KGaA, Darmstadt, Germany) and 1.25 g perkadox®16 (Aldrich, Netherlands). The polymerization was followed by cutting serial horizontal sections (perpendicular to the tibia sample) of 5 µm thickness within the trabecular region of interest using an RM2155 microtome with a TC 65 blade (Leica Microsystems GmbH, Wetzlar, Germany). Microscopic images were obtained using an inverted fluorescence/bright field microscope (BZ-9000, Keyence Deutschland GmbH, Neu-Isenburg, Germany). For image recording and processing, the software BZ-II Viewer and BZ-II Analyzer were used, respectively. To calculate the percentage of platinum co-localized with calcium, the background of the image and all pixels without hard bone tissue were excluded from the calculations. A pixel is considered to be background if its calcium intensity is below 15%. The platinum concentrations of the remaining pixels were then added up and divided by the sum of the entire platinum image to yield the percentage of platinum co-localized with calcium.
# [3] = micro-SPECT/CT quantification of 195mPt biodistribution; format: in vivo, C57BL/6N mice
# Source text: (§1) The ^195mPt-BP and ^195mPt(NO3)2(en) complexes were reconstituted in sterile saline solution (0.9% NaCl) and administered intravenously in the tail vein of C57BL/6N mice (n = 5 per each platinum complex). All mice received an intravenous injection with a dose of 11.2 ± 0.4 MBq ^195mPt. Immediately after injection and 1, 3, and 7 days after injection, images were acquired with U-SPECT-II/CT(MILabs) as reported previously[54],[55]. Mice were scanned under general anesthesia (isoflurane/O2) for 15 to 60 minutes using the 1.0-mm diameter pinhole mouse high sensitivity collimator tube, followed by a CT scan (spatial resolution […], 65 kV, […]) for anatomical reference. Scans were reconstructed with MILabs reconstruction software using an ordered-subset expectation maximization algorithm, with a voxel size of 0.4 mm. SPECT/CT scans were analyzed and maximum intensity projections were created using the Inveon Research Workplace software (IRW, version 4.1). A 3D volume of interest was drawn using CT threshold to differentiate soft tissue from skeletal tissue and uptake was quantified as the percentage injected dose per gram (%ID/g), assuming a tissue density of 1 g/cm^3. The hot spot in the skeletal tissue region of interest (ROI) was chosen with the location of the edge of the ROI contour representing 75% of maximum intensity. The mice from ^195mPt(NO3)2(en) group were euthanized with CO2 after 3 days due to excessive loss of body weight, whereas mice from treated with ^195mPt-BP were sacrificed at the end of experiments. After euthanizing the animals, blood (approximately 600 mg per mouse), liver, spleen, kidneys, heart, lungs, and bones (femur, humerus, tibia, and spine) were harvested and analyzed with a gamma counter (1470 Wizard, Perkin Elmer).
# [4] = Body weight, behaviour and toxicity of mice after injection of radioactive Pt-species; format: in vivo, C57BL/6N mice; conditions: for body weight and behavioral changes: 11.2 ± 0.4 MBq 195mPt i.v., first 3 days p.i. for 195mPt(NO3)2(en)
# Experimental: All in vivo work was conducted in accordance with ISO standards and the principles set forth by the Revised Dutch Act on Animal Experimentation. The in vivo experiments were approved by the institutional Animal Welfare Committee of the Radboud University Medical Center (Radboudumc), Nijmegen, the Netherlands. For both the experiment, 10 male C57Bl/6N mice (Charles River), with an average weight of ~25 g and an age of approximately 6–8 weeks were housed in filter-topped cages (5 mice per cage) under non-sterile standard conditions provided with standard animal food and water ad libitum. The mice were allowed to adapt to laboratory conditions for 1 week before experimental use. The humane end point were defined as follows, body weight gain of> 20% within 10 days, no water or food intake, weight loss of >15% within 1–2 days or> 20% of normal body weight of that animal, serious circulatory or respiratory problems, behavioural changes (hyperactivity, passive, auto-mutilation), and morbidities such as impaired mobility or lethargy.
# as §1, with “The mice from ^195mPt(NO3)2(en) group were euthanized with CO2 after 3 days due to excessive loss of body weight, whereas mice from treated with ^195mPt-BP were sacrificed at the end of experiments.” left out
# [5] = In vivo biodistribution of radioactive Pt-species, excised tissues by gamma counting; parameters: species or system C57BL/6N mice; conditions: 11.2 MBq i.v.
# Source text: as §1
# [6] = Whole-body 195mPt radioactivity in mice measured using an ionization chamber; format: in vivo; conditions: day 7
# Source text: Figure S3. ^195mPt radioactivity in mice. Percentage of injected dose (%ID) of ^195mPt-BP and ^195mPt(NO3)2(en) in mice, measured using an ionization chamber. ** P < 0.01; ****P < 0.0001 as determined by two-way ANOVA with a Bonferroni (multiple comparisons) post-hoc test.
# zebrafish embryos = assay: Phenotypic assessment of drug-treated zebrafish embryos; format: in vivo, zebrafish (Danio rerio); conditions: Pt-BP 5-100 µM, cisplatin 30 µM
# Experimental: The zebrafish (Danio rerio) strains were kept under standard conditions (28 °C in E3 buffer) until 48 hours post fertilization (hpf) as described previously. All animal experiments were conducted at larval stages before the point of independent feeding and were in agreement with the animal protection law (Tierschutzgesetz).
# 48 hpf wildtype embryos were separated into 6 groups (n = 20 embryos/group), i.e., control (untreated) and embryos treated with 5 µM, 10 µM, 50 µM, and 100 µM Pt-BP as well as 30 µM cisplatin. Both types of compounds were added externally to the medium and the embryos were incubated at 33 °C for the duration of the experiment. The embryos were assessed each day for phenotypic toxicity until 2 days post treatment (48 hpt) and imaged live in an Olympus MVX10 microscope.
# [7] = parameters: method as in PMID 29037232; conditions: cited from earlier work
smiles,measurement,setting,value
N.N.[Cl][Pt][Cl] [^195mPt-cisplatin],"inhibition of tumor growth, more effective compared to non-radioactive cisplatin",Ehrlich solid carcinoma,30%
"NCCN.O=[N+]([O-])[O-].O=[N+]([O-])[O-].[Pt+2] [Pt(NO3)2(en), reference compound]","Pt-DNA adduct formation relative to total Pt uptake, kidney",genomic DNA,4.8%
same,"Pt-DNA adduct formation relative to total Pt uptake, spleen",genomic DNA,9.8%
same,Pt uptake in hard tissue,[1],2.69 ± 0.26 %ID/g
same,Pt uptake in kidney,[1],3.38 ± 0.28 %ID/g
same,Pt uptake in liver,[1],1.54 ± 0.33 %ID/g
same,Pt uptake in spleen,[1],0.38 ± 0.04 %ID/g
same,Pt accumulation in hard tissue (bone),[1]; normalized for tissue weight,~ 1 ng Pt/mg tissue
"NCCN.O=[N+]([O-])[O-].O=[N+]([O-])[O-].[195Pt+2] [^195mPt(NO3)2(en), reference compound]",Pt not co-localized with Ca (Pt in soft tissue of the proximal tibia),[2]; Fig. 4C,10%
same,percentage of Pt co-localized with calcium,[2],37.3%
same,co-localization of Pt with Ca relative to that of 195mPt-BP,"[2]; total amount of Pt, Fig. 4C",27%
same,hard-to-soft tissue uptake ratio,"[3]; 1 h, excluding bladder uptake",1
same,hard-to-soft tissue uptake ratio,[3]; 24 h,1.2
same,hard-to-soft tissue uptake ratio,[3]; 72 h,1.2
same,uptake in bone (hard tissue),"[3]; micro-SPECT/CT, 1 h p.i.",1.5 ± 0.1 %I.D/g
same,uptake in soft tissue,"[3]; micro-SPECT/CT, 1 h p.i.",1.43 ± 0.21 %I.D/g
same,body weight and behavioral changes,[4],significant body weight loss
same,weight loss,"[4]; humane end point, euthanized after 3 days",more than 20%
same,"uptake in bones (femur, tibia, humerus)",[5]; gamma counting after 3 days,1.4 ± 0.15 %ID/g
same,uptake in kidneys,[5]; gamma counting after 3 days,3.95 ± 0.24 %ID/g
same,uptake in liver,[5]; gamma counting after 3 days,3.22 ± 0.28 %ID/g
same,uptake in lungs,[5]; gamma counting after 3 days,1.08 ± 0.16 %ID/g
same,uptake in spleen,[5]; gamma counting after 3 days,2.76 ± 0.67 %ID/g
NCCN.NCCN.O.O.O.O=S(=O)([O-])O.[NH3+]CC1(O)P2(=O)[O][195Pt][O]P1(=O)[O][195Pt][O]2 (stereo not drawn) [^195mPt-BP],Pt not co-localized with Ca (Pt in soft tissue of the proximal tibia),[2]; Fig. 4C,20%
same,accumulation of Pt in bone compared to 195mPt(NO3)2(en),[2]; Fig. 4C,almost a fourfold increased accumulation
same,percentage of Pt co-localized with calcium,[2],73.5%
same,whole-body radioactivity,[6],2 %ID
same,hard-to-soft tissue uptake ratio,"[3]; 1 h, excluding bladder uptake",3.3
same,hard-to-soft tissue uptake ratio,[3]; 24 h,6
same,hard-to-soft tissue uptake ratio,[3]; 72 h,6.7
same,uptake in bone (hard tissue),"[3]; micro-SPECT/CT, 1 h p.i.",1.8 ± 0.25 %I.D/g
same,uptake in soft tissue,"[3]; micro-SPECT/CT, 1 h p.i.",0.93 ± 0.27 %I.D/g
same,uptake in soft tissue,"[3]; micro-SPECT/CT, 24 h",0.18 ± 0.03 %I.D/g
same,uptake in hot spots in bone (ROI 75% of maximum intensity) compared to 195mPt(NO3)2(en),"[3]; micro-SPECT/CT, all time points",twofold increased uptake
same,uptake in bone (hard tissue),"[3]; micro-SPECT/CT, from 24 h until day 7",1.0 ± 0.12 %I.D/g
same,body weight and behavioral changes,[4],no behavioral or body changes were observed
same,Pt-based toxicity,[4]; over a period of 7 days,did not observe any Pt-based toxicity
same,uptake in femur,[5]; gamma counting after 7 days,3.1 ± 0.37 %ID/g
same,uptake in humerus,[5]; gamma counting after 7 days,2.53 ± 0.33 %ID/g
same,uptake in kidneys,[5]; gamma counting after 7 days,0.43 ± 0.16 %ID/g
same,uptake in soft tissues except kidneys,[5]; gamma counting after 7 days,< 0.11 %ID/g
same,uptake in tibia,[5]; gamma counting after 7 days,2.86 ± 0.46 %ID/g
N.N.[Cl][Pt][Cl] [cisplatin],visual inspection of kidneys based on size and shape,zebrafish embryos,apparent shrinkage
same,rapid weight loss followed by recovery within a week,[7]; mice at maximum tolerated dose,~ 10%
same,maximum tolerated dose,[7]; mice,6 mg/kg
